The results in this text go back to PubChem BioAssay AID1259418 (Broad Institute, 2018).

SMILES strings stand for the structures. Values joined by “and” are separate entries in the source; they are usually repeats but may differ in a detail not shown here. Identical values can stand only once. Results filed as inconclusive are left out. Active and inactive are the calls of the source.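 How the source made its calls: active means fitted half-maximal concentration of signal decrease at or below twice the sample's top tested concentration; inconclusive means flat curve between -70 and -30 percent, or poor fit; inactive means flat within 30 percent, signal rise, or potency above limit.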

The assay concerns the target T. gondii ME49Luc in IFN-y HeLa, luciferase, 72 h. The experiment in a line: inhibitors of Toxoplasma growth in IFN-γ-primed HeLa – cell-based, ME49Luc, luciferase, 72 h, dose response (AID 1259418).
Usually AC50 stands for the midpoint of the concentration-response curve, whichever way the signal moves. For the compound `CCc1c(C)sc2c1CCN(Cc1nc(-c3ccc(OC(C)C)cc3)oc1C)C2c1ccccc1` (stereo not drawn), the AC50 is > 39 µM (inactive).
With `CCOc1ccccc1-c1nc(CN(c2cccc(OC)c2)S(=O)(=O)c2ccccc2)c(C)o1`, the AC50 was > 39 µM (inactive).
The figure for `Cc1ccc(NC(=O)N2CCN(Cc3nc(-c4cccc(Cl)c4)oc3C)CC2)cc1` is > 39 µM (inactive).
Under `CC(C)NC(=O)N1CC(=O)N2[C@H](CO)[C@@H](c3ccc(/C=C/c4ccccc4)cc3)[C@H]2C1` stands 26.5 µM and 8.87 µM; under `Cc1cc(Nc2cc(N3CCN(C)CC3)nc(Sc3ccc(NC(=O)C4CC4)cc3)n2)n[nH]1`, 13.8 µM; under `Cc1cccc(CNC2=NCCNC23CCN(S(=O)(=O)c2ccc(C(C)C)cc2)CC3)c1`, 13 µM.
Under `COc1ccc(-c2nc(CN(c3ccccc3)S(=O)(=O)c3cccs3)c(C)o2)cc1OC` stands 6.84 µM.
Regarding `CN(C)CCNC(=O)c1ccc2onc(-c3coc(C4CC4)n3)c2c1`, the AC50 is 21.3 µM.
On to `Cc1ccc(S(=O)(=O)N2CCC3(CC2)NCCN=C3NCc2ccc(F)c(Cl)c2)cc1C`, for which the AC50 was 16.5 µM.
`C[C@@H]1CN([C@@H](C)CO)C(=O)Cc2cc(NS(=O)(=O)c3ccc(Cl)cc3)ccc2O[C@@H]1CN(C)C(=O)Nc1ccc(C(F)(F)F)cc1`: the AC50 is 27.9 µM and 13.5 µM.
The figure for `O=S(=O)(c1ccccc1)N1CCc2c([nH]c3ccccc23)C1c1ccc(F)c(F)c1` (stereo not drawn) is 13.9 µM; for `N#C[C@H]1[C@@H](c2ccc(-c3cccc(F)c3)cc2)[C@H](CO)N1C(=O)NC1CCCC1` it is 10.1 µM; for `Cc1nc(CCNC(=O)[C@H]2CCCN2C(=O)c2cccc(F)c2)cs1` it is 29.2 µM.
The figure for `COc1ccc(-c2nc(Nc3ccc(CN4CCCCC4)cc3)c3ccccc3n2)cc1` is 12 µM; for `Cc1ccc(-c2nc(CN3CCN(C(=O)Nc4ccc(F)cc4)CC3)c(C)o2)cc1` it is 33.3 µM.
The figure for `Cc1cccc(-c2nc(CSc3nc4c(c(=O)[nH]3)CN(Cc3ccccc3)CC4)c(C)o2)c1` is > 39 µM (inactive); for `COCCCN(Cc1ccco1)c1nc(-c2ccc(OC)cc2)nc2ccccc12` it is 16.9 µM; for `COc1cccc(S(=O)(=O)N2CCCCN3[C@H](CO)[C@H](c4ccc(-c5ccccc5)cc4)[C@H]3C2)c1` it is 5.11 µM.
With `CCCNC(=O)N1C[C@@H]2N[C@H](C1)C2c1ccc(-c2ccccc2C)cc1` (stereo partly drawn), the half-maximal activity concentration (AC50) was 18.1 µM.
On to `Cc1cc(C(F)(F)F)nn1CC(=O)N1CCCC1c1cc(C(C)C)on1` (stereo not drawn), for which the AC50 was 32.6 µM.
The figure for `CCc1ccc(N2CCC(C(=O)NCCc3c[nH]c4ccc(C)cc34)C2=O)cc1` (stereo not drawn) is 22.9 µM.
With `Cc1cc(C(C)(C)CC(C)(C)C)ccc1OCCOCC[N+](C)(C)Cc1ccccc1`, the AC50 is 14.9 µM.
Consider `COc1ccccc1CNC(=O)CC1N=C2c3ccccc3N=C(SCc3ccccc3Cl)N2C1=O` (stereo not drawn), for which the AC50 was 20.4 µM.
Take `Cc1ccc(C(=O)N2CCC3(CC2)Nc2cc(F)ccc2-n2cccc23)cc1C`: the AC50 is > 39 µM (inactive).
Under `CNC(=O)NCC1CCC2(CCN(Cc3ccccc3)CC2)CO1` (stereo not drawn) stands 26.3 µM; under `O=C(NCCc1csc(-c2ccccc2)n1)C1CCN(C(=O)c2ccccc2Cl)CC1`, 25.8 µM.
The figure for `CCc1ccc(NS(=O)(=O)c2cc3c4c(c2)CCC(=O)N4CCC3)cc1` is 37.7 µM; for `CCOc1ccccc1C(=O)N1CCC2(CC1)Nc1ccc(Cl)cc1-n1cccc12` it is 24.3 µM.
The figure for `COc1ccc(OC)c(S(=O)(=O)N2CCc3c([nH]c4ccccc34)C2c2cccc(F)c2)c1` (stereo not drawn) is > 39 µM (inactive); for `Cc1ccc(C(=O)Nc2c(C(=O)NCc3ccccn3)[nH]c3ccc(C)cc23)cc1` it is 25.3 µM; for `Cc1ccccc1-c1ccc([C@@H]2[C@@H](CO)N3CCCCN(S(=O)(=O)Cc4ccccc4)C[C@H]23)cc1` it is 19.8 µM.
With `O=C(c1ccc(-n2c(=S)[nH]c3ccccc3c2=O)cc1)N1CCC(O)(c2cccc(C(F)(F)F)c2)CC1`, the AC50 was 38 µM.
The figure for `O=C(CCC1N=C2c3ccccc3N=C(SCc3ccc(F)cc3)N2C1=O)NC1CCCCC1` (stereo not drawn) is 16.2 µM; for `CCCCN(C)C(=O)c1cnc(-c2noc3cc(NCC4CC4)ccc23)s1` it is 6.44 µM and 21.7 µM; for `COc1ccc(-c2nc(CN(c3ccccc3OC)S(=O)(=O)c3ccccc3)c(C)o2)cc1` it is 7.78 µM.
With `Fc1cccc(CSc2nc(NCc3ccc(Cl)cc3)c3ccccc3n2)c1`, the AC50 was 14 µM.
The figure for `COc1ccc(-c2nc(NCc3cccnc3)c3ccccc3n2)cc1` is 21.7 µM.
Under `Cc1cc(C)cc(S(=O)(=O)N2CCC3(CC2)NCCN=C3NCc2ccc(C(F)(F)F)cc2)c1` stands 6.65 µM; under `COc1ccc(-c2nc(NCCN3CCN(C)CC3)c3ccccc3n2)cc1`, 3.52 µM and 27.4 µM.
For the compound `O=C(NCCCN1CCCC1=O)C1CCN(Cc2cc3ccccc3n2Cc2cccc(F)c2)CC1`, the AC50 is 30.3 µM.
For the compound `COc1ccccc1-c1nc(C)c(-c2ccc(SCc3c(F)cccc3Cl)nn2)s1`, the AC50 was 38.4 µM.
The figure for `CCCCNC(=O)CCC1N=C2c3ccccc3N=C(SCc3ccc(F)cc3)N2C1=O` (stereo not drawn) is 24.8 µM; for `CCCNC(=O)N1C[C@@H]2N[C@H](C1)C2c1ccc(-c2cccc(F)c2)cc1` (stereo partly drawn) it is 18.2 µM.
As to `CO[C@@H]1CCN(S(=O)(=O)N(C)C)C[C@@H]1Cc1cccc(C)c1`, the concentration at half-maximal activity (AC50) was 23.5 µM.
Under `COc1ccc(S(=O)(=O)N(Cc2nc(-c3ccccc3OC)oc2C)c2ccccc2OC)cc1` stands 13.7 µM.
Under `CCCCC(CC)CNC(=O)CC1Nc2c3ccccc3nc(=S)n2C1=O` (stereo not drawn) stands 17.9 µM.
Under `CCOc1ccccc1N(Cc1nc(-c2ccc(OC)cc2)oc1C)S(=O)(=O)c1cccs1` stands 7.45 µM; under `Cc1oc(-c2cccc(Cl)c2)nc1CN1CCN(C(=O)Nc2ccc(Cl)cc2)CC1`, 22.4 µM.
For the compound `O=S(=O)(c1cccs1)N1CCC2(CC1)NCCN=C2NCc1ccc(Cl)cc1`, the AC50 was > 39 µM (inactive).
The figure for `O=C(C[C@H]1CC[C@H]2[C@@H](COC[C@@H](O)CN2Cc2cc(F)ccc2F)O1)NCc1ccc(Oc2ccccc2)cc1` is 27.3 µM; for `Cn1ncnc1[C@H]1c2n[nH]c(=O)c3cc(F)cc(c23)N[C@@H]1c1ccc(F)cc1` it is 38.6 µM.
The figure for `Cc1ccc2c(c1C)-n1cccc1C1(CCN(C(=O)c3ccccc3Br)CC1)N2` is 17.7 µM; for `CCc1cnc(N2[C@H](C#N)[C@H](c3ccc(C#Cc4ccccc4F)cc3)[C@@H]2CO)s1` it is 19.4 µM.
The figure for `O=C(Cc1cccnc1)N1CC(=O)N2[C@H](CO)[C@@H](c3ccc(C4=CCCCC4)cc3)[C@H]2C1` is 25.3 µM; for `CC(C)CNc1nc2c(cc1C(=O)NC(C)C)CCN(c1ccncn1)CC2` it is 26.5 µM; for `COc1cccc(NC(=O)N2CC(=O)N3[C@H](C2)[C@@H](c2ccc(C#CCC4CCCC4)cc2)[C@@H]3CO)c1` it is 17 µM and 3.35 µM.
Regarding `O=C(NCCc1csc(-c2ccccc2)n1)[C@H]1CCCN1C(=O)c1ccccc1`, the AC50 is 36.5 µM.
In the case of `COc1ccccc1S(=O)(=O)N1CC[C@@H]2[C@H]1c1cc(-c3cccc(C#N)c3)ccc1N(C)[C@H]2CO`, the AC50 was 18.9 µM.
For the compound `COc1ccccc1CNC1=NCCNC12CCN(S(=O)(=O)c1ccc(Cl)s1)CC2`, the half-maximal activity concentration (AC50) was 17 µM.
Consider `CCOc1ccc(-c2nc(CN(c3cccc(OC)c3)S(=O)(=O)c3ccccc3C)c(C)o2)cc1`, for which the AC50 was 34.5 µM.
Under `N#Cc1ccc(-c2ccc([C@@H]3[C@@H]4CN(S(=O)(=O)Cc5ccccc5)C[C@H]3N4)cc2)cc1` stands 6.55 µM and 15.5 µM; under `O=S(=O)(c1ccc2c(c1)CCCC2)N1CCC2(CC1)NCCN=C2NCc1cccc(F)c1`, 5.26 µM.
Under `Cc1ccc(N(Cc2nc(-c3cccc(Cl)c3)oc2C)S(=O)(=O)c2cccs2)cc1` stands 5.3 µM and 7.96 µM.
Consider `COc1cccc(NC(=O)N2CC(=O)N3[C@H](CO)[C@@H](c4ccc(C#CCC5CCCC5)cc4)[C@@H]3C2)c1`, for which the AC50 was 11.9 µM and 9.9 µM.
Consider `O=C(c1ccc(F)cc1)N1CC(=O)N2[C@H](CO)[C@@H](c3ccc(C#CCC4CCCC4)cc3)[C@@H]2C1`, for which the AC50 was 17.6 µM and 4.58 µM.
The figure for `O=C(O)CC1CCC(c2ccc(-c3ccc(Nc4ccc(C(F)(F)F)nc4)cn3)cc2)CC1` (stereo not drawn) is 19 µM; for `CCc1ccc(S(=O)(=O)N2CCC3(CC2)NCCN=C3NCc2ccc(C)cc2)cc1` it is 8.88 µM.
Turning to `COc1cccc(NC(=O)N2CC(=O)N3[C@@H](CO)[C@@H](c4ccc(C#CCC5CCCC5)cc4)[C@@H]3C2)c1`, the AC50 was 22.5 µM.
Under `O=C(C(=O)N1CCN(c2ncnc3c2nnn3Cc2ccccc2)CC1)c1c[nH]c2ccccc12` stands 13.5 µM.
With `COc1ccc(N(Cc2nc(-c3ccc(C)cc3)oc2C)S(=O)(=O)c2ccc(C)cc2)cc1`, the AC50 is 13.2 µM.
As to `OC(c1cc(C(F)(F)F)nc2c(C(F)(F)F)cccc12)C1CCCCN1` (stereo not drawn), the AC50 is 6.5 µM.
On to `O=C(Nc1cccc(F)c1)N1CCCCN2[C@@H](CO)[C@H](c3ccc(C#Cc4cccnc4)cc3)[C@@H]2C1`, for which the AC50 was 4.48 µM.
Turning to `CC(C)n1c(C(=O)N2CCN(c3ccncc3)CC2)cc2c1c1ccccc1n2C`, the AC50 was 19.9 µM.
As for `Cc1ccccc1S(=O)(=O)N1C[C@@H]2N[C@H](C1)C2c1ccc(-c2cccc(C#N)c2)cc1` (stereo partly drawn), the AC50 is 15.6 µM and 2.57 µM and 18.7 µM.
The figure for `CC(C)(C)CC(C)(C)c1ccc(OCCOCC[N+](C)(C)Cc2ccccc2)cc1` is 15.6 µM; for `COc1cccc(C(=O)Nc2ccc3c(c2)C(=O)N(C)[C@@H]2CC[C@H](CC(=O)NCc4ccc(F)cc4)O[C@@H]2CO3)c1` it is 9.13 µM.
Turning to `O=C(Nc1cccc(F)c1)N1CCCCN2[C@H](CO)[C@@H](c3ccc(C#Cc4cccnc4)cc3)[C@H]2C1`, the AC50 was 19.1 µM.
The figure for `Cc1ccc(CNc2nc(-c3ccc(Cl)cc3)nc3ccccc23)cc1` is 37 µM; for `COc1ccc(OCC(=O)N2CCC3(CC2)Nc2ccc(Cl)cc2-n2cccc23)cc1` it is > 39 µM (inactive).
Take `COc1ccc2c(c1)NC1(CCN(C(=O)c3c(F)cccc3F)CC1)c1cccn1-2`: the AC50 is > 39 µM (inactive).
Under `Cc1ccc(-c2coc(-c3ccc(NS(=O)(=O)c4ccc(Br)cc4C)cc3)n2)c(C)c1` stands 26.7 µM; under `O=C(Cc1ccncc1)N1CCCCN2[C@H](C1)[C@@H](c1ccc(C#Cc3ccccc3F)cc1)[C@@H]2CO`, 5.02 µM; under `O=C(CCC1N=C2c3ccccc3N=C(SCc3ccccc3F)N2C1=O)NCc1ccccc1` (stereo not drawn), 29.4 µM.
